Results as given in patent US9170264B2, “Methods of monitoring for adherence to aripiprazole therapy” (Ameritox, Ltd., priority 2013, dated 2015).
Several values for one entry are separate records, joined by “and”; a condition that tells them apart may be missing. Equal values may be shown once. Blank lines part the entries; values can stand above or below the compound they belong to.

Assays:
[1] = Urine testing for compliance over 5 days, patients prescribed 30 mg/day Abilify (Example 3); type: in vivo, human; conditions: for urine concentration: 30 mg/day Abilify, individual subjects
Protocol: (§1) The concentration of any analyte described in the present disclosure may be determined (e.g., measured) by any suitable quantification method. In some embodiments, the concentration of an analyte (e.g., aripiprazole, dehydroaripiprazole, and/or OPC3373) is measured by tandem liquid chromatography-mass spectrometry-mass spectrometry (“LC/MSMS”). In some embodiments, the concentration of an analyte (e.g., aripiprazole, dehydroaripiprazole, and/or OPC3373) is measured by tandem liquid chromatography-High Resolution mass spectrometry (Time of Flight (TOF)) (“LC/MS(TOF)”). In some embodiments, the concentration of an analyte (e.g., aripiprazole, dehydroaripiprazole, and/or OPC3373) is measured by direct injection mass spectrometry-mass spectrometry ([…]) e.g., such systems as RapidFire™ (Agilent) or Laser Diode Thermal Desorption (“LDTD”) (Phytronix) to introduce samples into the mass spectrometer; either triple quadrupole (i.e., MSMS) or exact mass (i.e., Time of Flight, Orbitrap, etc.) instruments
The urine of 5 patients who were prescribed 30 mg of Abilify® (aripiprazole) was tested for compliance over 5 days (Table 3). […] Without OPC3373, only 93% were determined to be positive with one patient either having stopped taking their medicine between day 4 and 5 or just being below the reporting cutoffs for both aripiprazole and dehydroaripiprazole. Thus, use of OPC3373 as a urine biomarker even at this relatively high dose adds value to compliance monitoring for Abilify®.

[2] = cited from earlier work
[3] = Urine testing for compliance over 5 days, patients prescribed 2 mg/day Abilify (Example 8); type: in vivo, human; parameters: Urine concentration, individual subject: unit not given here
Protocol: as §1
The urine of 15 patients who were prescribed 2 mg of Abilify® (aripiprazole) was tested for compliance over 5 days (Table 14). […] Without OPC3373, only 24% were determined to be positive with patients just being below the reporting cutoffs for both aripiprazole and dehydroaripiprazole. Thus, use of OPC3373 as a urine biomarker at this lower dose makes compliance monitoring for Abilify® possible. […] However, OPC3373 in subject M confirmed the subject's adherence to aripirazole therapy despite the low observed creatinine level.

[4] = Levels of OPC3373, aripiprazole and dehydroaripiprazole in urine of humans taking chronic doses of aripiprazole (Example 1); type: in vivo, human; conditions: for Levels in Human Urine: individual specimens, chronic doses of aripiprazole, LOQ OPC3373 100 ng/mL, dehydroaripiprazole 5 ng/mL, aripiprazole 5 ng/mL
Protocol: as §1
The appearance of OPC3373 (4-[(2-Oxo-1,2,3,4-tetrahydro-7-quinolinyl)oxy]butanoic acid, BMS-337047) as the major aripiprazole metabolite in the urine can be used to help monitor patient adherence to aripiprazole therapy. While analysis of both aripiprazole and the plasma metabolite, dehydroaripiprazole, can be used to monitor patient adherence, the relatively low levels of these molecules in the urine frequently results in “false negatives” in patients known to be taking aripiprazole.

[5] = Urine testing for compliance over 5 days, patients prescribed 20 mg/day Abilify (Example 4); type: in vivo, human; conditions: n 66 samples
Protocol: as §1
The urine of 22 patients who were prescribed 20 mg of Ability (e.g., aripiprazole) was tested for compliance over 5 days (Table 5). […] Without OPC3373, only 85% were determined to be positive with patients just being below the reporting cutoffs for both aripiprazole and dehydroaripiprazole. Thus, use of OPC3373 as a urine biomarker even at this relatively high dose adds value to compliance monitoring for Abilify®.

[6] = Urine testing for compliance over 5 days, patients prescribed 5 mg/day Abilify (Example 7); type: in vivo, human; parameters: Aripiprazole (urine test result) / Dehydroaripiprazole (urine test result): unit not given here; conditions: for Dehydroaripiprazole (urine test result) / Aripiprazole (urine test result): human urine, patients prescribed 5 mg/day Abilify
Protocol: as §1
The urine of 25 patients who were prescribed 5 mg of Abilify® (aripiprazole) was tested for compliance over 5 days (Table 11). […] Without OPC3373, only 47% were determined to be positive with patients just being below the reporting cutoffs for both aripiprazole and dehydroaripiprazole. Thus, use of OPC3373 as a urine biomarker at this lower dose adds a great deal of value to compliance monitoring for Abilify®.

[7] = Urine testing for compliance over 5 days, patients prescribed 15 mg/day Abilify (Example 5); type: in vivo, human; parameters: urine concentration: unit not given here; conditions: for urine concentration, Avg / urine concentration, Max / urine concentration, Min: n 69 samples
Protocol: as §1
The urine of 23 patients who were prescribed 15 mg of Abilify® (aripiprazole) was tested for compliance over 5 days (Table 7). […] Without OPC3373, only 78% were determined to be positive with patients just being below the reporting cutoffs for both aripiprazole and dehydroaripiprazole. […] Thus, use of OPC3373 as a urine biomarker at this dose adds value to compliance monitoring for Abilify®.

[8] = Urine testing for compliance over 5 days, patients prescribed 10 mg/day Abilify (Example 6); type: in vivo, human; conditions: n 111 samples
Protocol: as §1
The urine of 37 patients who were prescribed 10 mg of Abilify® (aripiprazole) was tested for compliance over 5 days (Table 9). […] Without OPC3373, only 61% were determined to be positive with patients just being below the reporting cutoffs for both aripiprazole and dehydroaripiprazole. Thus, use of OPC3373 as a urine biomarker at this dose adds value to compliance monitoring for Abilify®.

[9] = Urine testing of aripiprazole positive patients in a controlled study, LC/MSMS (Example 2); type: in vivo, human; conditions: 5 mg q day, individual samples, LLOQ aripiprazole 5, dehydroaripiprazole 5, OPC3373 25 ng/mL
Protocol: as §1
An additional set of aripiprazole positive patients was monitored for levels of aripiprazole, dehyrdroaripiprazole, and OPC3373 in their urine.
Dehydroaripiprazole: 5 ng/mL
These analyses were completed using LC/MSMS.

[10] = Day 1, subjects A-O (one value per subject)
[11] = Day 4, subjects A-O (one value per subject)
[12] = Day 5, subjects A-O (one value per subject)

urine concentration ([1]; Day 1): 11.5 and 29.2 and 6.8 and 56.9 and 14.1
urine concentration ([1]; Day 4): 14.1 and 84.8 and 11.0 and 36.3 and 16.6
urine concentration ([1]; Day 5): 0 and 17.0 and 8.9 and 89.7 and 28.1
urine concentration, Avg ([1]; 30 mg/day, n 15 samples): 28.33 ng/mL
urine concentration, Max ([1]; 30 mg/day, n 15 samples): 89.70 ng/mL
urine concentration, Min ([1]; 30 mg/day, n 15 samples): 0.00 ng/mL
Urine drug/metabolite concentration, Extremes ([3]; Day 1): 0-7.4
Urine drug/metabolite concentration, Mean +/- SD ([3]; Day 1): 0.5 +/− 1.9
Urine drug/metabolite concentration, Median ([3]; Day 1): 0
Urine concentration, individual subject [3, 10]: 0
Urine drug/metabolite concentration, Extremes ([3]; Day 4): 0-0
Urine drug/metabolite concentration, Mean +/- SD ([3]; Day 4): 0 +/− 0
Urine drug/metabolite concentration, Median ([3]; Day 4): 0
Urine concentration, individual subject [3, 11]: 0
Urine drug/metabolite concentration, Extremes ([3]; Day 5): 0-0
Urine drug/metabolite concentration, Mean +/- SD ([3]; Day 5): 0 +/− 0
Urine drug/metabolite concentration, Median ([3]; Day 5): 0
Urine concentration, individual subject [3, 12]: 0 (13×) and 10.7 and 0.0
urine concentration, Avg ([3]; n 45 samples): 0.24
urine concentration, Max ([3]; n 45 samples): 10.7
urine concentration, Min ([3]; n 45 samples): 0
Range of levels in Human Urine ([4]; over 22 specimens, * below LOQ): 5 to 75 ng/mL
urine concentration, Avg [5]: 12.30
urine concentration, Max [5]: 91.40
urine concentration, Min [5]: 0.00
Urine drug/metabolite concentration, Extremes ([6]; 5 mg/day Abilify, Day 1): 0-6.5
Urine drug/metabolite concentration, Mean +/- SD ([6]; 5 mg/day Abilify, Day 1): 2.3 +/− 3.2
Urine drug/metabolite concentration, Median ([6]; 5 mg/day Abilify, Day 1): 0
Urine drug/metabolite concentration, Extremes ([6]; 5 mg/day Abilify, Day 4): 0-6.1
Urine drug/metabolite concentration, Median ([6]; 5 mg/day Abilify, Day 4): 0
Urine drug/metabolite concentration, Extremes ([6]; 5 mg/day Abilify, Day 5): 0-8.2
Urine drug/metabolite concentration, Median ([6]; 5 mg/day Abilify, Day 5): 0
urine concentration, Avg ([6]; 5 mg/day Abilify, n 75 samples): 1.96
urine concentration, Max ([6]; 5 mg/day Abilify, n 75 samples): 17.1
urine concentration, Min ([6]; 5 mg/day Abilify, n 75 samples): 0
urine concentration, Avg [7]: 8.76
urine concentration, Max [7]: 33.30
urine concentration, Min [7]: 0.00
urine concentration, Max [8]: 64.8
urine concentration, Min [8]: 0
urine concentration, avg [8]: 6.27
Structure (SMILES): O=c1ccc2ccc(OCCCCN3CCN(c4cccc(Cl)c4Cl)CC3)cc2[nH]1 [Dehydroaripiprazole, dehydroaripiprazole]
share of a dose represented in plasma [2]: 20%
Levels in Human Urine [4]: <5.0 ng/mL (7×) and 5.1 ng/mL (2×) and 14.1 ng/mL and 0.0 ng/mL (5×) and 17.8 ng/mL and 20.1 ng/mL and 5.9 ng/mL and 0 ng/mL and 15.8 ng/mL and 8.8 ng/mL and 56.1 ng/mL
Dehydroaripiprazole (urine test result) ([6]; Day 1): 6.6 and 0 (20×) and 5.1 and 7.4 and 5.3 and 8.7
Dehydroaripiprazole (urine test result) ([6]; Day 4): 10.2 and 0 (19×) and 17.1 and 8.0 and 7.5 and 7.4 and 8.4
Dehydroaripiprazole (urine test result) ([6]; Day 5): 5.7 and 0 (19×) and 5.2 and 5.5 and 15.8 and 8.2 and 15.1
urine concentration ([7]; Day 1, individual subjects): 27.9 and 0 (6×) and 21 and 10.1 and 5.9 and 11.4 (2×) and 12.8 and 25.4 and 12.3 and 6.7 and 6.1 and 5.5 and 9.6 and 5.2 and 5.1 and 14.6 and 6.6
urine concentration ([7]; Day 4, individual subjects): 16.8 and 7.4 and 20.7 and 7.5 and 0 (11×) and 24 and 21.0 and 10.1 and 25.8 and 8.6 and 8.1 and 14.3 and 8.0
urine concentration ([7]; Day 5, individual subjects): 12.8 and 0 (9×) and 5.2 and 17.0 and 24.1 (2×) and 23.1 and 23.9 and 33.3 and 12.3 and 6.5 and 11.2 and 16.6 and 0.0 and 24.9
Abilify Urine Results [9]: 0 ng/mL (3×) and 6.5 ng/mL and 5.2 ng/mL and 6.4 ng/mL

Range of levels in Human Urine ([4]; human, in vivo): 10*-1500 ng/mL
Structure (SMILES): O=C(O)CCCOc1ccc2c(c1)NC(=O)CC2 [OPC3373, 4-[(2-Oxo-1,2,3,4-tetrahydro-7-quinolinyl)oxy]butanoic acid]
share of a dose represented in plasma [2]: 2%
recovered from a dose as urinary metabolite ([2]; urine, reported by Baselt): 19%

Urine concentration, individual subject [3, 10]: 9.0 and 0 (6×) and 7.9
Urine concentration, individual subject [3, 11]: 0
Urine concentration, individual subject [3, 12]: 10.5 and 0 (4×) and 30.9 and 6.1
Range of levels in Human Urine ([4]; over 22 specimens, * below LOQ): 5 to 100 ng/mL
urine concentration, Avg [7]: 15.29
urine concentration, Max [7]: 76.70
urine concentration, Min [7]: 0.00
Structure (SMILES): O=C1CCc2ccc(OCCCCN3CCN(c4cccc(Cl)c4Cl)CC3)cc2N1 [Aripiprazole]
oral dose excreted as unchanged aripiprazole in faeces ([2]; faeces, humans): 8-18%
time of dosing until steady state serum concentrations are achieved ([2]; in vivo): two
share of a dose represented in plasma [2]: 57%
oral dose excreted as unchanged aripiprazole in urine ([2]; urine, humans): Less than 1%
Levels in Human Urine [4]: 9.5 ng/mL and <5.0 ng/mL (9×) and 32.4 ng/mL and 9.7 ng/mL and 53.3 ng/mL and 84.9 ng/mL and 38.7 ng/mL and 10 ng/mL and 0.0 ng/mL (2×) and 17.4 ng/mL and 17.9 ng/mL and 5.0 ng/mL and 39.5 ng/mL
Aripiprazole (urine test result) ([6]; Day 1): 10.1 and 0 (13×) and 9 and 7.5 and 5.0 and 9.7 and 8.5 and 8.8 and 8.4 and 13.1 and 6.4 and 38.4 and 5.4
Aripiprazole (urine test result) ([6]; Day 4): 21.5 and 11.3 and 6.6 (2×) and 0.0 (2×) and 5.2 and 0 (9×) and 32.4 and 13.1 and 15.6 and 6.5 and 10.3 and 7.5 and 5.5 and 9.5 and 11.8
Aripiprazole (urine test result) ([6]; Day 5): 10.2 and 5.1 and 7.3 and 0 (15×) and 14.9 and 0.0 and 5.3 and 10.1 and 12.7 and 9.7 and 31.6
urine concentration ([7]; Day 1, individual subjects): 52.2 and 0 (6×) and 5.3 and 15.1 and 31.2 and 15.4 and 17.9 and 20.0 and 31.5 and 9.8 and 8.9 and 17.5 and 15.0 and 10.1 and 5.4 and 19.4 and 27.6 and 14.6
urine concentration ([7]; Day 4, individual subjects): 31.7 and 19.5 and 39.3 and 10.2 and 8.9 and 12.3 and 0 (8×) and 40 and 26.7 and 45.3 and 14.5 and 6.2 and 5.7 and 7.9 and 62.3 and 19.0
urine concentration ([7]; Day 5, individual subjects): 22.8 and 0 (5×) and 16.4 and 9.3 and 6.9 and 32.1 and 37.1 and 16.7 and 7.4 and 57.3 and 12.3 and 14.2 (2×) and 7.5 and 17.7 and 25.3 and 5.1 and 76.7 and 9.6
Abilify Urine Results [9]: 0 ng/mL and 11.1 ng/mL and 22.3 ng/mL and 9.4 ng/mL and 19.4 ng/mL and 11.6 ng/mL
